How the values were obtained:
[1] = tested on: antibodies in sera from SARS patients (sera 1a, 1b, 2, 6, 37, 62, London, SARS-yellow, SARS-green); type: binding, human; parameters: Binding of serum 6 to linear peptides of protein X1 of SARS-CoV Urbani / Binding of serum 37 to linear peptides of protein X1 of SARS-CoV Urbani / Binding of serum 6 to looped/cyclic peptide (PEPSCAN-ELISA) / Binding of serum 37 to looped/cyclic peptide (PEPSCAN-ELISA) / Binding of serum 37 to looped/cyclic peptides of protein X1 of SARS-CoV Urbani / Binding of serum 6 to linear peptides of protein X2 / Binding of serum 37 to linear peptides of protein X2 / Binding of serum 37 to looped/cyclic peptides of protein X2 of SARS-CoV Urbani / Binding of serum 6 to linear peptides of protein M of SARS-CoV Urbani / Binding of serum 37 to linear peptides of protein M of SARS-CoV Urbani / Binding of serum 6 to looped/cyclic peptides of protein M of SARS-CoV Urbani / Binding of serum 37 to looped/cyclic peptides of protein M of SARS-CoV Urbani / Binding of serum 6 to linear peptides of protein X3 of SARS-CoV Urbani / Binding of serum 37 to linear peptides of protein X3 of SARS-CoV Urbani / Binding of serum 37 to looped/cyclic peptides of protein X3 of SARS-CoV Urbani / Binding of serum 6 to linear peptides of protein X4 of SARS-CoV Urbani / Binding of serum 37 to linear peptides of protein X4 of SARS-CoV Urbani / Binding of serum 37 to looped/cyclic peptides of protein X4 of SARS-CoV Urbani / Binding of serum 6 to linear peptides of protein X5 of SARS-CoV Urbani / Binding of serum 37 to linear peptides of protein X5 of SARS-CoV Urbani / Binding of serum 37 to looped/cyclic peptides of protein X5 of SARS-CoV Urbani / Binding of serum 6 to linear peptides of protein N of SARS-CoV Urbani / Binding of serum 37 to linear peptides of protein N of SARS-CoV Urbani / Binding of serum 6 to linear peptide (PEPSCAN-ELISA) / Binding of serum 1a to looped/cyclic peptides of protein N of SARS-CoV Urbani / Binding of serum 1b to looped/cyclic peptides of protein N of SARS-CoV Urbani / Binding of serum 2 to looped/cyclic peptides of protein N of SARS-CoV Urbani / Binding of serum 6 to looped/cyclic peptides of protein N of SARS-CoV Urbani / Binding of serum 37 to looped/cyclic peptides of protein N of SARS-CoV Urbani / Binding of serum 62 to looped/cyclic peptides of protein N of SARS-CoV Urbani / Binding of serum London to looped/cyclic peptides of protein N of SARS-CoV Urbani / Binding of serum SARS-green to looped/cyclic peptides of protein N of SARS-CoV Urbani: unit not given here
[2] = tested on: control sera (pooled serum of ten healthy LUMC hospital workers; commercial negative donor pooled serum from the Dutch bloodbank); type: binding, human; parameters: Binding of Control serum LUMC to linear peptides / Binding of Control serum Blood-bank to linear peptides / Binding of Control serum LUMC to looped peptides / Binding of Control Serum Blood-Bank to Looped peptides / Binding of Control serum LUMC to linear peptides of the protein M of SARS-CoV Urbani / Binding of Control serum Blood-bank to linear peptides of the protein M of SARS-CoV Urbani / Binding of Control serum LUMC to looped peptides of the protein M of SARS-CoV Urbani / Binding of Control Serum Blood-Bank to Looped peptides of the protein M of SARS-CoV Urbani: unit not given here
[3] = tested on: rabbit serum obtained by immunizing a rabbit with the SARS-CoV strain Frankfurt 1; type: binding; parameters: Binding of a rabbit serum to linear peptides / Binding of a rabbit serum to looped peptides / Rabbit serum linear peptides / Rabbit serum looped peptides / Binding of a rabbit serum to linear peptides of protein N of SARS-CoV Urbani (Rabbit serum linear peptides) / Binding of a rabbit serum to looped/cyclic peptides of protein N of SARS-CoV Urbani (Rabbit serum looped peptides): unit not given here

TGIENATFFIFNKLV
Binding of serum 1a to linear peptides of protein X1 of SARS-CoV Urbani [1]: 0.7 | Binding of serum 1a to looped/cyclic peptides of protein X1 of SARS-CoV Urbani [1]: 0.6 | Binding of serum 1b to linear peptides of protein X1 of SARS-CoV Urbani [1]: 0.5 | Binding of serum 1b to looped/cyclic peptides of protein X1 of SARS-CoV Urbani [1]: 0.5 | Binding of serum 2 to linear peptides of protein X1 of SARS-CoV Urbani [1]: 0.6 | Binding of serum 2 to looped/cyclic peptides of protein X1 of SARS-CoV Urbani [1]: 0.6 | Binding of serum 6 to linear peptides of protein X1 of SARS-CoV Urbani [1]: 0.5 | Binding of serum 6 to looped/cyclic peptides of protein X1 of SARS-CoV Urbani [1]: 0.5 | Binding of serum 37 to linear peptides of protein X1 of SARS-CoV Urbani [1]: 0.7 | Binding of serum 37 to looped/cyclic peptides of protein X1 of SARS-CoV Urbani [1]: 0.7 | Binding of serum 62 to linear peptides of protein X1 of SARS-CoV Urbani [1]: 0.7 | Binding of serum 62 to looped/cyclic peptides of protein X1 of SARS-CoV Urbani [1]: 0.7 | Binding of serum London to linear peptides of protein X1 of SARS-CoV Urbani [1]: 0.3 | Binding of serum London to looped/cyclic peptides of protein X1 of SARS-CoV Urbani [1]: 0.3 | Binding of serum SARS-green to linear peptides of protein X1 of SARS-CoV Urbani [1]: 0.4 | Binding of serum SARS-green to looped/cyclic peptides of protein X1 of SARS-CoV Urbani [1]: 0.2 | Binding of serum SARS-yellow to linear peptides of protein X1 of SARS-CoV Urbani [1]: 0.6 | Binding of serum SARS-yellow to looped/cyclic peptides of protein X1 of SARS-CoV Urbani [1]: 0.4 | Binding of Control Serum Blood-Bank to Looped peptides [2]: 0.8 | Binding of Control serum Blood-bank to linear peptides [2]: 0.8 | Binding of Control serum LUMC to linear peptides [2]: 0.7 | Binding of Control serum LUMC to looped peptides [2]: 0.7 | Binding of a rabbit serum to linear peptides [3]: 0.1 | Binding of a rabbit serum to looped peptides [3]: 0.6

THRMCKYTQSTALQE
Binding of serum 1a to linear peptides of protein X2 [1]: 0.9 | Binding of serum 1a to looped/cyclic peptides of protein X2 of SARS-CoV Urbani [1]: 0.5 | Binding of serum 1b to linear peptides of protein X2 [1]: 0.8 | Binding of serum 1b to looped/cyclic peptides of protein X2 of SARS-CoV Urbani [1]: 0.6 | Binding of serum 2 to linear peptides of protein X2 [1]: 0.5 | Binding of serum 2 to looped/cyclic peptides of protein X2 of SARS-CoV Urbani [1]: 0.2 | Binding of serum 6 to linear peptides of protein X2 [1]: 0.6 | Binding of serum 6 to looped/cyclic peptides of protein X2 of SARS-CoV Urbani [1]: 0.2 | Binding of serum 37 to linear peptides of protein X2 [1]: 0.7 | Binding of serum 37 to looped/cyclic peptides of protein X2 of SARS-CoV Urbani [1]: 0.3 | Binding of serum 62 to linear peptides of protein X2 [1]: 0.8 | Binding of serum 62 to looped/cyclic peptides of protein X2 of SARS-CoV Urbani [1]: 0.4 | Binding of serum London to linear peptides of protein X2 [1]: 0.7 | Binding of serum London to looped/cyclic peptides of protein X2 of SARS-CoV Urbani [1]: 0.2 | Binding of serum SARS-green to linear peptides of protein X2 [1]: 0.6 | Binding of serum SARS-green to looped/cyclic peptides of protein X2 of SARS-CoV Urbani [1]: 0.5 | Binding of serum SARS-yellow to linear peptides of protein X2 [1]: 0.8 | Binding of serum SARS-yellow to looped/cyclic peptides of protein X2 of SARS-CoV Urbani [1]: 0.3 | Binding of Control Serum Blood-Bank to Looped peptides [2]: 0.5 | Binding of Control serum Blood-bank to linear peptides [2]: 0.9 | Binding of Control serum LUMC to linear peptides [2]: 0.7 | Binding of Control serum LUMC to looped peptides [2]: 0.4 | Binding of a rabbit serum to linear peptides [3]: 0.3 | Binding of a rabbit serum to looped peptides [3]: 0.3

TIAEILIIIMRTFRI
Binding of serum 1a to linear peptides of protein X3 of SARS-CoV Urbani [1]: 0.8 | Binding of serum 1a to looped/cyclic peptides of protein X3 of SARS-CoV Urbani [1]: 0.7 | Binding of serum 1b to linear peptides of protein X3 of SARS-CoV Urbani [1]: 0.3 | Binding of serum 1b to looped/cyclic peptides of protein X3 of SARS-CoV Urbani [1]: 0.4 | Binding of serum 2 to linear peptides of protein X3 of SARS-CoV Urbani [1]: 0.7 | Binding of serum 2 to looped/cyclic peptides of protein X3 of SARS-CoV Urbani [1]: 0.6 | Binding of serum 6 to linear peptides of protein X3 of SARS-CoV Urbani [1]: 0.7 | Binding of serum 6 to looped/cyclic peptides of protein X3 of SARS-CoV Urbani [1]: 0.4 | Binding of serum 37 to linear peptides of protein X3 of SARS-CoV Urbani [1]: 0.6 | Binding of serum 37 to looped/cyclic peptides of protein X3 of SARS-CoV Urbani [1]: 0.3 | Binding of serum 62 to linear peptides of protein X3 of SARS-CoV Urbani [1]: 0.7 | Binding of serum 62 to looped/cyclic peptides of protein X3 of SARS-CoV Urbani [1]: 0.4 | Binding of serum London to linear peptides of protein X3 of SARS-CoV Urbani [1]: 0.7 | Binding of serum London to looped/cyclic peptides of protein X3 of SARS-CoV Urbani [1]: 0.2 | Binding of serum SARS-green to linear peptides of protein X3 of SARS-CoV Urbani [1]: 0.3 | Binding of serum SARS-green to looped/cyclic peptides of protein X3 of SARS-CoV Urbani [1]: 0.4 | Binding of serum SARS-yellow to linear peptides of protein X3 of SARS-CoV Urbani [1]: 0.3 | Binding of serum SARS-yellow to looped/cyclic peptides of protein X3 of SARS-CoV Urbani [1]: 0.5 | Binding of Control Serum Blood-Bank to Looped peptides of the protein X3 of SARS-CoV Urbani [2]: 1.1 | Binding of Control serum Blood-bank to linear peptides of the protein X3 of SARS-CoV Urbani [2]: 0.8 | Binding of Control serum LUMC to linear peptides of the protein X3 of SARS-CoV Urbani [2]: 0.6 | Binding of Control serum LUMC to looped peptides of the protein X3 of SARS-CoV Urbani [2]: 0.7 | Rabbit serum linear peptides [3]: 0.2 | Rabbit serum looped peptides [3]: 0.0

TIDGSSGVANPAMDP
Binding of serum 1a to linear peptides of protein X1 of SARS-CoV Urbani [1]: 0.6 | Binding of serum 1a to looped/cyclic peptides of protein X1 of SARS-CoV Urbani [1]: 0.5 | Binding of serum 1b to linear peptides of protein X1 of SARS-CoV Urbani [1]: 0.6 | Binding of serum 1b to looped/cyclic peptides of protein X1 of SARS-CoV Urbani [1]: 0.4 | Binding of serum 2 to linear peptides of protein X1 of SARS-CoV Urbani [1]: 0.6 | Binding of serum 2 to looped/cyclic peptides of protein X1 of SARS-CoV Urbani [1]: 0.4 | Binding of serum 6 to linear peptides of protein X1 of SARS-CoV Urbani [1]: 0.6 | Binding of serum 6 to looped/cyclic peptides of protein X1 of SARS-CoV Urbani [1]: 0.3 | Binding of serum 37 to linear peptides of protein X1 of SARS-CoV Urbani [1]: 0.6 | Binding of serum 37 to looped/cyclic peptides of protein X1 of SARS-CoV Urbani [1]: 0.3 | Binding of serum 62 to linear peptides of protein X1 of SARS-CoV Urbani [1]: 0.6 | Binding of serum 62 to looped/cyclic peptides of protein X1 of SARS-CoV Urbani [1]: 0.3 | Binding of serum London to linear peptides of protein X1 of SARS-CoV Urbani [1]: 0.4 | Binding of serum London to looped/cyclic peptides of protein X1 of SARS-CoV Urbani [1]: 0.2 | Binding of serum SARS-green to linear peptides of protein X1 of SARS-CoV Urbani [1]: 0.4 | Binding of serum SARS-green to looped/cyclic peptides of protein X1 of SARS-CoV Urbani [1]: 0.3 | Binding of serum SARS-yellow to linear peptides of protein X1 of SARS-CoV Urbani [1]: 0.3 | Binding of serum SARS-yellow to looped/cyclic peptides of protein X1 of SARS-CoV Urbani [1]: 0.2 | Binding of Control Serum Blood-Bank to Looped peptides [2]: 0.4 | Binding of Control serum Blood-bank to linear peptides [2]: 0.4 | Binding of Control serum LUMC to linear peptides [2]: 0.6 | Binding of Control serum LUMC to looped peptides [2]: 0.4 | Binding of a rabbit serum to linear peptides [3]: 0.1 | Binding of a rabbit serum to looped peptides [3]: 0.4
